US11976075B2, “Inhibitors of the MYST family of lysine acetyl transferases” (Isosterix, Inc., priority 2022, dated 2024)

Experiments:
ZR-75-1 = assay: In Vitro Cancer Cell Assay (cell viability, Cell Titer Glow, 10 days); assay type: cell-based; conditions: Homo sapiens; ZR-75-1 cells; Table 2
Procedure: ZR-75-1 and T47D are breast cancer cell lines containing high KAT6A protein expression. Proliferation of these cell lines are inhibited upon treatment with a KAT6A inhibitor. Cell line MCF7 is used as a negative control. MCF7 cells have a low KAT6A protein expression and are not growth inhibited upon treatment with KAT6A inhibitors. WM-1119 is used as a positive control.
1500 cells are seeded per well and incubated overnight at 37° C. and 5% CO2. Cells are treated after 24 hours with a compound (stock solution, 10 mM in DMSO) with 9-10 dilutions and a final DMSO concentration of 0.5%. […] Test compounds are tested like WM-1119. Plates are incubated at 37° C. and 5% CO2 for 10 days. Media is replenished after every alternate day. At day 10, Cell Titer Glow is added to the wells and luminescence is recorded after 10 min incubation. Data are normalized to 100% with DMSO control and subtracting media blank. Cell viability is of the test compounds is measured.
The above procedure can be followed for determining activity in additional cell lines, for example, ZR-75-1, T47D, CHAGOK1 and other cell lines that have high expression of KAT6A. The number of cells used will be optimized based on growth rate of the individual cell lines.

[1] = molecular target: T1, Recombinant KAT6A/MOZ (488-778) protein (Homo sapiens, UniProt Q92794); assay: Kat6a AlphaLISA Inhibition Screening Assay; assay type: biochemical; conditions: 60′ pre-incubation; Table 2; read-out: Kat6A biochemical assay: IC50
T1 construct: Recombinant KAT6A/MOZ (488-778) protein (Active motif, Catalog #81223); purchased Active Motif 81223
T1 sequence (Q92794 488-778): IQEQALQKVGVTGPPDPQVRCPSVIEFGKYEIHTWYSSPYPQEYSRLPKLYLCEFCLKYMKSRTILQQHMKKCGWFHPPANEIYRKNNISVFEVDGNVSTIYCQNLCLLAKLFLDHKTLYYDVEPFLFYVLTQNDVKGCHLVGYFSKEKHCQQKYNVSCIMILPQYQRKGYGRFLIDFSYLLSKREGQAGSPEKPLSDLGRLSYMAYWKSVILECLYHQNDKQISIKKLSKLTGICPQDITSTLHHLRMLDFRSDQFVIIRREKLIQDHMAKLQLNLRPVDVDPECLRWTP
Summary of the method: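 Recombinant KAT6A (488-778), 25 nM, was preincubated with compound (10-point dose response) for 60 or 10 min. It then reacted 120 min at room temperature with 200 nM biotin-H3(1-21) peptide and 400 nM acetyl-CoA, pH 8.0, with 330 nM TSA present. Acetylation was detected by AlphaLISA (anti-acetyl-lysine acceptor, streptavidin donor beads).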

Row | EC50 (ZR-75-1) [µM] | IC50 [1] [µM] | Structure (SMILES)
1 | ≤ 10 | ≤ 10 | C#CC(=O)NCc1cnn(Cc2cc(OC)c3c(NS(=O)(=O)c4ccccc4C(=O)OC)noc3c2)c1 [Synthetic Example 36, methyl 2-(N-(4-methoxy-6-((4-(propiolamidomethyl)-1H-pyrazol-1-yl)methyl)benzo[d]isoxazol-3-yl)sulfamoyl)benzoate]
2 | ≤ 10 | ≤ 10 | C#CC(=O)N1Cc2cnn(Cc3cc(OC)c4c(NS(=O)(=O)c5ccccc5OC)noc4c3)c2C1 [Synthetic Example 26A, 2-methoxy-N-(4-methoxy-6-((5-propioloyl-5,6-dihydropyrrolo[3,4-c]pyrazol-1(4H)-yl)methyl)benzo[d]isoxazol-3-yl)benzenesulfonamide]
